Key:
5-HT3 receptor = molecular target: T1, 5-HT3 receptor (Rattus norvegicus, UniProt P35563); experiment: Suppression of 5-HT-induced reflex bradycardia in urethane-anesthetised rats (antagonistic activity against 5-HT3 receptor in vivo); set-up: species or system Male Wister rat; conditions: intravenous administration, suppression of reflex bradycardia generated by i.v. 5-HT, read-out: IC50 i.v.
T1 construct: from tissue
T1 sequence (P35563 24-483): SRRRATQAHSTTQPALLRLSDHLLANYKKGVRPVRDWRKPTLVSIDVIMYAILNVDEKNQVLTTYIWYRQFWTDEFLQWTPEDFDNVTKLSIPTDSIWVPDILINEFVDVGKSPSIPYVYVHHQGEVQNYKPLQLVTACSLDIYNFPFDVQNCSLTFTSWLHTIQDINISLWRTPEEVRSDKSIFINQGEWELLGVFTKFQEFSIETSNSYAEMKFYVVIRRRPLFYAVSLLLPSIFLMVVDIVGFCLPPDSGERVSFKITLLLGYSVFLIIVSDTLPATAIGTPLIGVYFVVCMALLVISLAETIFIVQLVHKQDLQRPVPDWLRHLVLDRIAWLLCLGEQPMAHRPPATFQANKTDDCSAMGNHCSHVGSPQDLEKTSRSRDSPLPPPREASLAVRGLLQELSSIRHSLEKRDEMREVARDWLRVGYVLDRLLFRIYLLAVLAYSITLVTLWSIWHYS
Protocol: Male Wister rat was urethane-anesthetised and fixed. Cannulas were inserted in the carotoid artery and in the thigh vein as used for recording of blood pressure and heart beat, and for the administration of the test compounds, respectively.
Several doses of a compound of the present invention were administered from the vein. 5-HT was administered rapidly to the vein, 2 mins. after insertion of cannulas. The suppression effect of the compounds were confirmed by the measurement of the reflex bradycardia generated (Nature 316, 126 (1985)).

[1] = Acute toxicity by intravenous administration; conditions: mouse, in vivo; intravenous administration in mice
Protocol: Tests confirmed that the toxicity of the compounds of the present invention is very low. Therefore, the compounds of the present invention may be considered to be sufficiently safe and suitable for pharmaceutical use.
For example, the value of acute toxicity (LD50) of the compound prepared as in Example 1 was 50 mg/kg animal body weight by intravenous administration in mice.

Which ED50 (5-HT3 receptor) does the source give for `CNc1cc2ccn(Cc3nc[nH]c3C)c(=O)c2cc1Cl.Cl.Cl` [1(d), 6-methylamino-7-chloro-2-(5-methyl-imidazol-4-ylmethyl)-1,2-dihydro-isoquinolin-1-one dihydrochloride] here?
The ED50 was 0.49 mg/kg.

With `CNc1cc(Cl)cc2c(=O)n(Cc3nc[nH]c3C)ccc12.Cl.Cl` [1(e), 5-methylamino-7-chloro-2-(5-methyl-imidazol-4-ylmethyl)-1,2-dihydro-isoquinolin-1-one dihydrochloride] as the compound, how does the ED50 (5-HT3 receptor) read?
Its ED50 is 1.44 mg/kg.

For `CC(=O)Nc1cc2ccn(Cc3nc[nH]c3C)c(=O)c2cc1Cl` [Example 1(a)], which ED50 (5-HT3 receptor) is on record?
The ED50 was 0.99 mg/kg.

Which ED50 (5-HT3 receptor) does the source give for `Cc1[nH]cnc1Cn1ccc2cc(N)c(Cl)cc2c1=O.Cl.Cl` [Example 1, 6-amino-7-chloro-2-(5-methylimidazol-4-ylmethyl)-1,2-dihydroisoquinolin-1-one dihydrochloride] here?
The ED50 was 0.39 mg/kg.

What about the LD50 [1] of the same compound?
The LD50 was 50 mg/kg.

Source: EP0482939A1, “Isoquinolinone derivative” (ONO PHARMACEUTICAL CO., LTD., priority 1990, dated 1992)
